According to patent US10426850B2, “Collagen mimetic peptides for targeting collagen strands for in vitro and in vivo imaging and therapeutic use” (The Johns Hopkins University, priority 2011, dated 2019):
“Also recorded” adds a separate entry of the source.

What was measured:
[1] = target: T1, MMP-1 cleaved type I collagen (Rattus norvegicus, UniProt P02454+P02466); assay: Photo-triggered CMP binding assay on MMP-1 digested collagen; settings: MMP-1 digested collagens after the 37° C. incubation; UV-activated
T1 construct: purchased BD Science (collagen); EMD Millipore (ProMMP-1); host or cells: rat tail; digested in house
Description: (§1) MMP-1 digestion of type I collagen and CMP binding assays. ProMMP-1 (1 μg, EMD Millipore) was activated by p-aminophenylmercuric acetate (1.1 mM) in 132.5 μL of TNC buffer (50 mM Tris-HCl, 0.15 M NaCl, 5 mM CaCl2, 0.02% NaN3, pH 7.5) at 37° C. for 3 hr. Type I collagen (62.6 μg) was subsequently added to the MMP-1 solution and incubated at room temperature for at least 3 days. Digested products were analyzed by SDS-PAGE and circular dichroism spectroscopy (FIG. 12). Wells of nunc black 96-well maxisorp plate were charged with 50 μL of TNC buffer containing 0.5 M glycerol, and 100 μg/mL collagen or MMP-1 cleaved collagen, and incubated at room temperature. The collagen solutions used were either kept at room temperature (22° C.) or incubated at 37° C. for 1 minute just prior to coating. […] Wells were washed extensively with PBSB followed by fluorescence (ex: 489 nm, em: 533 nm) reading with a SpectraMax M-2 microplate reader (Molecular Devices). […] The background fluorescence of empty wells was subtracted from the raw fluorescence data. For estimating the amount of adsorbed protein, un-blocked collagen-coated wells were treated with 100 μM 5-(4,6-dichlorotriazinyl)aminofluorescein (DTAF, 50 μL, in 0.1 M sodium borate buffer) at room temperature for 3 hours, and the fluorescence (ex: 489 nm, em: 533 nm) of the well was measured after washing with 1×PBS. […]

intact type I collagen = target: T2, intact type I collagen (Rattus norvegicus, UniProt P02454+P02466); assay: Photo-triggered CMP binding assay on intact non-fibrillar collagen; settings: intact collagens, before and after 37° C. incubation; UV-activated
T2 construct: type I rat tail, BD Science; purchased BD Science; host or cells: rat tail
Description: as §1

[2] = test system: collagen types I, II and IV; assay: SDS-PAGE staining by heat activated fluorescent CMP, collagen types; format: binding, rat (I), bovine (II), mouse (IV); settings: 6 μM, 2 μg protein per lane
Description: (§2) Acid soluble rat-tail type I collagen, bovine type II collagen, and mouse type IV collagen were purchased from BD Bioscience (San Jose, Calif.). Complement component C1q from human serum, fibronectin from bovine plasma, and laminin from Engelbreth-Holm-Swarm murine sarcoma basement membrane were purchased from Sigma-Aldrich. ProMMP-1, and p-aminophenylmercuric acetate were acquired from EMD millipore. Human umbilical vein endothelial cells (HUVECs) and EGM-2 cell growth media were obtained from Lonza (Walkersville, Md.). Precast NuPAGE® Novex 4-12% Bis-Tris Gel (1.0 mm, 12 well), Novex® Sharp unstained protein standard, and SDS-PAGE running buffer, sample buffer, and other SDS-PAGE reagents were purchased from Life Technologies.
SDS-PAGE staining and imaging. Proteins were resolved on NuPAGE® Novex 4-12% bis-tris gels under denaturating conditions using an XCell SureLock™ Mini-Cell electrophoresis system (Life Technologies). NuPAGE® MOPS SDS running buffer containing 50 mM MOPS, 50 mM Tris Base, 0.1% SDS, and 1 mM EDTA (pH 7.7) was used. Protein samples were heated to 85° C. in NuPAGE® LDS sample denaturing buffer for 10 min before the gel loading. Unless specified otherwise, 2 μg of protein was used for each lane. The gels were run at 200 V for 50-60 min. Reducing conditions were used only for gels carrying type IV collagen, HUVECs lysate, and C1q, for which NuPAGE® reducing agent was mixed with the protein samples, and 500 μL of NuPAGE® antioxidant was added to the cathode buffer before loading. After electrophoresis, the gels were washed by deionized water briefly three times to remove the remaining SDS. […] The fluorescence intensities of the protein bands were quantified using GE ImageQuant™ TL software. After fluorescence imaging, all gels were further stained with coomassie brilliant blue (CB) G-250 (Bio-Rad) for 2-3 hr followed by washing, and imaging under white light illumination using a Gel Doc EQ system (BioRad).

[3] = test system: whole cell lysate of human umbilical vein endothelial cells (HUVEC); assay: SDS-PAGE staining by heat activated fluorescent CMP, cell lysate; format: binding; settings: 6 μM
Description: (§3) To prepare MMP-1 cleaved collagen chain fragments, proMMP-1 (1 μg) was activated by p-aminophenylmercuric acetate (1.1 mM) in 132.5 μL of TNC buffer (50 mM Tris-HCl, 0.15 M NaCl, 5 mM CaCl2, 0.02% NaN3, pH 7.5) at 37° C. for 3 hr, after which type I collagen (62.6 μg) was added to the activated MMP-1 solution and incubated at room temperature for at least 3 days. To obtain the cell lysate, confluent HUVECs cultured in EGM-2 media at 37° C. were lysed with lysis buffer (25 mM Tris-HCl, 0.5% Triton X-100, 200 mM NaCl, 2 mM EDTA, phosphatase and protease inhibitors; Roche Applied Science). The lysate solution was spun at 15,000 g for 15 min and the supernatant was collected. The recombinant streptococcal collagen-like protein Scl2.28CL was expressed and characterized following the methods introduced by Mohs et al. (J. Biol. Chem. 282, 29757-29765 (2007)).
(§4) SDS-PAGE staining and imaging. Proteins were resolved on NuPAGE® Novex 4-12% bis-tris gels under denaturating conditions using an XCell SureLock™ Mini-Cell electrophoresis system (Life Technologies). […] The fluorescence intensities of the protein bands were quantified using GE ImageQuant™ TL software. After fluorescence imaging, all gels were further stained with coomassie brilliant blue (CB) G-250 (Bio-Rad) for 2-3 hr followed by washing, and imaging under white light illumination using a Gel Doc EQ system (BioRad).

complement factor C1q = target: T3, complement factor C1q (Homo sapiens, UniProt P02745+P02746+P02747); assay: SDS-PAGE staining of collagen-like protein C1q; format: binding; settings: 6 μM, heat activated, 2 μg
T3 construct: Complement component C1q from human serum; purchased Sigma-Aldrich; host or cells: human serum
Description: as §2
as §4, with “Technologies). NuPAGE® MOPS SDS running buffer containing 50 mM MOPS, 50 mM Tris Base, 0.1% SDS, and 1 mM EDTA (pH 7.7) was used.” for “Technologies).”

[4] = test system: streptococcal collagen-like protein Scl2.28CL; assay: SDS-PAGE staining of collagen-like protein Scl2.28CL; format: binding, Streptococcus pyogenes; settings: 6 μM, heat activated, 2.5 μg, gel fixed with glutaraldehyde
Description: as §3, §4

T3 sequence (P02745 23-245): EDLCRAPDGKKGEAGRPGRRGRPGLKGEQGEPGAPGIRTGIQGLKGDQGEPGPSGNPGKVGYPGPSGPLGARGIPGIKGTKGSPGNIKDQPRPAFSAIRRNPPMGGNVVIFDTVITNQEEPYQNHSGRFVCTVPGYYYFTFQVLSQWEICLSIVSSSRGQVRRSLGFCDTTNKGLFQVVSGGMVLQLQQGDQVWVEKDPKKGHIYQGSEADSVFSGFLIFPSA
T3 sequence (P02746 28-253): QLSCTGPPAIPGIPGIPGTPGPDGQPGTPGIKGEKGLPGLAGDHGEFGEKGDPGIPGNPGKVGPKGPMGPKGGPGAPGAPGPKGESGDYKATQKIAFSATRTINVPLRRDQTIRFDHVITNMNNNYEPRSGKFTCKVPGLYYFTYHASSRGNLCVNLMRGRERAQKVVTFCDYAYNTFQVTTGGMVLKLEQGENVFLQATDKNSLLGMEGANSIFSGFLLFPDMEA
T3 sequence (P02747 29-245): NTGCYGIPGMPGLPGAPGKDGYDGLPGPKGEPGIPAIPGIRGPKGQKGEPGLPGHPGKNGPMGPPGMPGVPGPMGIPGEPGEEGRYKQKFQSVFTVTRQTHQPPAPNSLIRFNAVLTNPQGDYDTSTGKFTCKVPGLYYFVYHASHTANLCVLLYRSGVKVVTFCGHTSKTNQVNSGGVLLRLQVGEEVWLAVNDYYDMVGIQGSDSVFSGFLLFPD
T1 sequence (P02454 152-942 limits assumed): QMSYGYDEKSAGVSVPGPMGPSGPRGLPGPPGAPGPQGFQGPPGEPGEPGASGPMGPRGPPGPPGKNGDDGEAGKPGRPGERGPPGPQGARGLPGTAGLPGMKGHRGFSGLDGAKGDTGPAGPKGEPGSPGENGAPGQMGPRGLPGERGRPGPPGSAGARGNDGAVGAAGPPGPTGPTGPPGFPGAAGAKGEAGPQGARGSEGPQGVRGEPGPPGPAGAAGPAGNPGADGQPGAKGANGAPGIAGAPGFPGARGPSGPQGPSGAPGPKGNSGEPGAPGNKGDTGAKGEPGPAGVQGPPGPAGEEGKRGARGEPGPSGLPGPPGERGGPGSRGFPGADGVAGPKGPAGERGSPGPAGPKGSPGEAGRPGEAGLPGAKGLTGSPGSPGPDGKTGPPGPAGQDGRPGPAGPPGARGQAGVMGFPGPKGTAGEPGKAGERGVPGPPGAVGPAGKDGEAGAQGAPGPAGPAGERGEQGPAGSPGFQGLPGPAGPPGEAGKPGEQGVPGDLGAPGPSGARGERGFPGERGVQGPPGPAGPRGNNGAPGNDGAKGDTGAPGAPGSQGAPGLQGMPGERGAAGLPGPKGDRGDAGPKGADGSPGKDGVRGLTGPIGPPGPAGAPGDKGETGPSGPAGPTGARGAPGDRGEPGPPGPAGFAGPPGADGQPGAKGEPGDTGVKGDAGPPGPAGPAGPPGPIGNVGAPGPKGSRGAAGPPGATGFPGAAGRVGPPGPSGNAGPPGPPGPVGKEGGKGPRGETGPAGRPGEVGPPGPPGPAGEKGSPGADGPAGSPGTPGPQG
T1 sequence (P02454 943-1207 limits assumed): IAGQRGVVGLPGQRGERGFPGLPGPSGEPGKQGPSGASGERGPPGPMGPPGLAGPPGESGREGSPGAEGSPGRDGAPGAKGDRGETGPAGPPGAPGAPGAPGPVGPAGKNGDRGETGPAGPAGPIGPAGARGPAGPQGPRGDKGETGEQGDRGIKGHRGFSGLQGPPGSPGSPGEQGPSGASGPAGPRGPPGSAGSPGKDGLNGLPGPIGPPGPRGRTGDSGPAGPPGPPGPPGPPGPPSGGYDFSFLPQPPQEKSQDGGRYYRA
T1 sequence (P02466 86-871 limits assumed): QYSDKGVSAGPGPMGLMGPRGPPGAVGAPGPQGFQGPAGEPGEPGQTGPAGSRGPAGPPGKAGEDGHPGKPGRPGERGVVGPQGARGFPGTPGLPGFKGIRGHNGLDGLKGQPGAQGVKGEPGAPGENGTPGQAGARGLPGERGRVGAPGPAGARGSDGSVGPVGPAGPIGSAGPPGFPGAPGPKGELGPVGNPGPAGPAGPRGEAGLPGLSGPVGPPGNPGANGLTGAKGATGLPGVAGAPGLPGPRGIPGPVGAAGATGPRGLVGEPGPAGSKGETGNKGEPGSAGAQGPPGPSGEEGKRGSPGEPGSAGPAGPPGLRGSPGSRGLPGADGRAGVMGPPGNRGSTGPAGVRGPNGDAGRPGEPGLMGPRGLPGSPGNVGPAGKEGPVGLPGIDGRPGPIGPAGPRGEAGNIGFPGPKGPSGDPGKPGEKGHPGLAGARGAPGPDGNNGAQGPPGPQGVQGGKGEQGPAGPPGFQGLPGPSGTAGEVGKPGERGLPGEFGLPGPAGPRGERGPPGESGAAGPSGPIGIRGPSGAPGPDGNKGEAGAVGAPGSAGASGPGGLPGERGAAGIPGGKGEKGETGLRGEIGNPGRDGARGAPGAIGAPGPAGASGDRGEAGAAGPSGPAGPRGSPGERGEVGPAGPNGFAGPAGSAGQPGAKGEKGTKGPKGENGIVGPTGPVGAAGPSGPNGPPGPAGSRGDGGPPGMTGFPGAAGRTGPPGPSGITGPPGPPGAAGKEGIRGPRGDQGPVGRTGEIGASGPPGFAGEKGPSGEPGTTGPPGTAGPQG
T1 sequence (P02466 872-1125 limits assumed): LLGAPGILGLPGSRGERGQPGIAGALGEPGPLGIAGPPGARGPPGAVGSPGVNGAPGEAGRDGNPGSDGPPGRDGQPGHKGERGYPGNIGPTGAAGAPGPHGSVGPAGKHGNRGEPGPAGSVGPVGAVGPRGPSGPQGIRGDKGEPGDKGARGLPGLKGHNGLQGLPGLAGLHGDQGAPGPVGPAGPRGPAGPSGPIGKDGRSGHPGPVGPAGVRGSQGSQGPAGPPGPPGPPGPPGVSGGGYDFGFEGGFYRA
T2 sequence (P02454 152-1207 limits assumed): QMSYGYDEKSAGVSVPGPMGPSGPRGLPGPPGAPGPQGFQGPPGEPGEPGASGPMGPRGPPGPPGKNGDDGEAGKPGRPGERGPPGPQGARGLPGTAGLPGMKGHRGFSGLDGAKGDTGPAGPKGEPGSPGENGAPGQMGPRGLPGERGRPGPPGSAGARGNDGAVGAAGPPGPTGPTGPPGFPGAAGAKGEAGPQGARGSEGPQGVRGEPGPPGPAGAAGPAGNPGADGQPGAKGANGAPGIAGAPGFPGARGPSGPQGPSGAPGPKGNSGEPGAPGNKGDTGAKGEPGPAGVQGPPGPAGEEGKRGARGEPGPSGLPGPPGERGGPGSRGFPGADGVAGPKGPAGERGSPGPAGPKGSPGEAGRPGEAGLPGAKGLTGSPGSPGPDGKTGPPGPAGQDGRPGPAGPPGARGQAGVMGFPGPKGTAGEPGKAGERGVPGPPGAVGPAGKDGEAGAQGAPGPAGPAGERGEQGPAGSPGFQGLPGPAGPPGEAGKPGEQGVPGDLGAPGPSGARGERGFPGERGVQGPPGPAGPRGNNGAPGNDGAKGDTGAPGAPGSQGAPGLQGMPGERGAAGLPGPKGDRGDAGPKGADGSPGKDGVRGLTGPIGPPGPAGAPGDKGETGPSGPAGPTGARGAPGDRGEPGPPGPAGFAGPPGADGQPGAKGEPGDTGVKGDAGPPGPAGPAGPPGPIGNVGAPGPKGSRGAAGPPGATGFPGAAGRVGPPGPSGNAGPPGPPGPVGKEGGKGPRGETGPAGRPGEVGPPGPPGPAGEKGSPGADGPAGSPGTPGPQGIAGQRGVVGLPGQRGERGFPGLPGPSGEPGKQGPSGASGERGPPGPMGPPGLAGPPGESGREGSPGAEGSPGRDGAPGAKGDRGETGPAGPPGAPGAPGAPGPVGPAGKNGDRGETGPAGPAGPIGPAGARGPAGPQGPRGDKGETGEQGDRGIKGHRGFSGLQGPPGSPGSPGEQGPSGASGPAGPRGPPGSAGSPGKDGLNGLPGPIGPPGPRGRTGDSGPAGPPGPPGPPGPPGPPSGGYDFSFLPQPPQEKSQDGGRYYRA
T2 sequence (P02466 86-1125 limits assumed): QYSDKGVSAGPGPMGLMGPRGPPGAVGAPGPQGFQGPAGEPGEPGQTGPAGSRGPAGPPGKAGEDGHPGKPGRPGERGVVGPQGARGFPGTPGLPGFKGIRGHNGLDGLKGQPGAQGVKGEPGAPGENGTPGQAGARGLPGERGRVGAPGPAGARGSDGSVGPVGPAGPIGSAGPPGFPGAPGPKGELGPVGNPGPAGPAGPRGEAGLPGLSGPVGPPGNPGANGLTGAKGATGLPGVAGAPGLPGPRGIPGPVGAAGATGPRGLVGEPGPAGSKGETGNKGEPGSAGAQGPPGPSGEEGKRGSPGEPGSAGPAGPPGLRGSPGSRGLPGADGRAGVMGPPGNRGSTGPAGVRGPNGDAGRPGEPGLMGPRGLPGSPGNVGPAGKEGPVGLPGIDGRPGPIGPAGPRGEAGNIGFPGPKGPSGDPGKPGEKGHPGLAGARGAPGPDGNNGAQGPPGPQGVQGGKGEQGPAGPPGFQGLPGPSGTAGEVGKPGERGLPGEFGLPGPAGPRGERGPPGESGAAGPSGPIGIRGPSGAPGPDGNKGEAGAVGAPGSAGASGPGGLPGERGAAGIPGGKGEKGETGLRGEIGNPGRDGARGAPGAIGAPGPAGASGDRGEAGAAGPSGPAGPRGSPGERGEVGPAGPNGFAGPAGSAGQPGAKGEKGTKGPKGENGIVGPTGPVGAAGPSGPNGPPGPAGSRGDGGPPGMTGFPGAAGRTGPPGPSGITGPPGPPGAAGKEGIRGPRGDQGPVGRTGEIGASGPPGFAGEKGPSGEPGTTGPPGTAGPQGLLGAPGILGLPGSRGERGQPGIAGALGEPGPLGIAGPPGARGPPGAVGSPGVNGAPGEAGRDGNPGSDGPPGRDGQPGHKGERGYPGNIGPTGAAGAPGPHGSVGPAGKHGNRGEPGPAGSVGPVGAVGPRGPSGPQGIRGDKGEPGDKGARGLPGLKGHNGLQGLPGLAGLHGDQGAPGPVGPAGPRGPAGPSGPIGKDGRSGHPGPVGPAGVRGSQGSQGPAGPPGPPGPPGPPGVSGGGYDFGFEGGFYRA

Row | Substance | level of CMP binding, fold higher compared to all other collagens tested [1] | level of CMP binding (intact type I collagen) | staining of collagen bands [2] | staining of cell lysate protein bands [3] | staining of C1q chains (complement factor C1q) | staining of Scl2.28CL bands [4] | staining of collagen bands ([2]; listed as CFSG9P9O9)
1 | CF-GGG-(GPO)4^NBGPO(GPO)4 [CF^NB(GPO)9] | 4-10 fold | similarly low |  |  |  |  | 
2 | CF-GGG-(GPO)9 [CF(GPO)9] |  |  | binds to collagen types I, II and IV | no protein band was visualized | almost as effectively as collagens | failed to stain; also recorded: almost no staining of the Scl2.28CL band | 
3 | CF-GGG-PGOGPGPOPOGOGOPPGOOPGGOOPPG [CF^SG9P9O9, reference compound] |  |  | virtually no binding affinity to the collagen bands |  |  |  | revealed no collagen bands
